One assay has as its system LC8-LC8TRAP complex. The assay can be described thus: UV light (350 nm) disruption of dimerizer-LC8-LC8TRAP complex, native PAGE. The settings on record: UV 350 nm. It is filed as biochemical. The procedure: (§1) Native PAGE. Each of, LC8 and FKBP-LC8TRAP, were mixed in a molar concentration of 50 μM and 1.2 molar excess (60 μM) of AP20187 or 2.4 molar excess (120 μM) of PhAP20187. The mix were incubated at 4° C. for 5 min. Native PAGE analysis was performed at 16° C. using 8-25% gradient gels on the PHASTSYSTEM™ (GE Biosciences).
Next, we characterized how well UV light could disrupt the PhAP-LC8-LC8TRAP complex in vitro. We generated the PhAP-LC8-LC8TRAP and AP-LC8-LC8TRAP complexes and exposed each to UV light (350 nm). Native PAGE indicated loss of the band corresponding to the PhAP-LC8-LC8TRAP complex and an increase in intensity of bands corresponding to the individual components after UV induction. The band corresponding to the PhAP-LC8-LC8TRAP complex was less intense in samples that received a five min exposure to UV light and undetectable after a 10 min exposure. On the other hand, the LC8-LC8TRAP complex induced by the non-photocleavable AP persisted, even after a 30 min exposure to UV light (FIG. 2C).

In the next assay the target is T1, LC8 and FKBP-LC8TRAP (Homo sapiens, UniProt P62942, F37V).
T1 construct: made in house; host or cells: bacteria (pET21D vector)
T1 sequence (P62942 with tags, fused parts or gaps F37V): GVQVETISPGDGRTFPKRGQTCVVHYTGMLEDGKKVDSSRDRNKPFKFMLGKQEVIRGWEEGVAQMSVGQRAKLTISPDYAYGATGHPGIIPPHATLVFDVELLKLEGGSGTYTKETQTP
The assay can be described thus: Native PAGE of LC8-LC8TRAP complex formation induced by dimerizer. It is filed as biochemical. The settings on record: for complex formation between LC8 and FKBP-LC8TRAP (new band): native PAGE, addition of dimerization agent. The procedure: as §1
We then tested whether this replacement of the amine linker with the o-nitrobenzyl moiety affected the dimerization of FKBP in vitro. We used native PAGE to follow the formation of the LC8-LC8 molecular trap (LC8TRAP) complex induced by addition of PhAP. See e.g., Varma et al., 2010 (Id.) Upon the addition of PhAP to an equimolar mixture of LC8 and LC8TRAP, we observed a new band that migrated the same distance as the band produced by addition of AP (FIG. 2A).
Native PAGE analysis was conducted for stoichiometric complex formation between LC8 and FKBP-LC8TRAP on addition of dimerization agent AP.

Assay [1] has as its system EGFP-FKBP-LC8TRAP transfected COS1 cells. As to the kind of experiment: Endosome dispersion (EEA1 staining) in trap-transfected cells. It is filed as cell-based. As to conditions: for time of drug treatment after which maximum dispersion was reached: unchanged with further increase in time; for maximum number of cells with dispersed endosomes: 2 h, dimerizer concentrations greater than 500 nM; for drug concentration at which maximum dispersion is seen: 2 hrs treatment, unchanged with further increase in concentration. On the procedure: Cell Culture. COS1 cells were cultured in DMEM (CELLGRO®) supplemented with 10% fetal bovine/calf serum (Omega Scientific). Transfection was performed in 80-90% confluent 24-h cultures of COS1 cells using LIPOFECTAMINE™ 2000 (Invitrogen) and OPTI-MEM™ media (GIBCO®) according to the manufacturer's recommendations. Various concentrations (0 nM to 1000 nM) of AP (Ariad Pharmaceuticals Inc.) and PhAP (as described herein) were added to each experimental wells 24 hr. post transfection and incubated for different periods of time before analyzing the cells. For reversibility of endosome dispersion studies, 500 nM of AP/PhAP were used. In each case, the cells were washed well with PBS and supplemented with fresh media before inducing with UV light (10 mins., 4 W, 350 nm) and allowed to recover for various time period at 37° C., before analysis.
Immunostaining and Microscopy. For immunostaining, transiently transfected COS1 cells were fixed with 3.7% formaldehyde at room temperature for 10 min, and subsequent immunostaining was performed as described previously^[2]. Briefly, COS 1 cells grown on 25-mm coverslips were washed 3× with PBS, treated with 3.7% formaldehyde (Sigma) in PBS for fixation, and permeabilized in 0.5% Triton X-100 (Sigma) in PBS at room temperature for 10 min. Cells were then incubated with blocking buffer containing 4% skimmed milk (fat free) and 0.5% Triton X-100 in PBS. Anti-EEA1 monoclonal antibody was added to label early endosome marker protein at a dilution of 1:100 in the same buffer for 30 min at RT, and the coverslips were washed and incubated with rhodamine-conjugated donkey anti-mouse secondary antibody (1:100). After washing, the coverslips were mounted on slides to visualize the trapping effects. Samples were viewed using an Olympus IX81 automated inverted microscope equipped with water immersion 60× objective. The level of dispersion was quantified by counting 100 cells per coverslip. Each experiment was performed in triplicate. Images were obtained using a Spot RT Slider high-resolution cooled CCD camera equipped to IX81 microscope and Image-Pro software. Images were cropped and processed using Adobe Photoshop 7.0 (Adobe Systems).
To determine if these biochemical results had relevance in cells, we investigated if photocleavage of PhAP could reverse the endosome dispersion phenotype induced by LC8TRAP and AP. First, we established that PhAP behaved in a similar intracellular manner as AP. To this end, we used a green fluorescent protein (GPF) analog of the trap, EGFP-FKBP-LC8TRAP to identify cells that expressed the trap. COS1 cells were transiently transfected with EGFP-FKBP-LC8TRAP for 24 h, after which they were treated with PhAP or AP (0 nM-1000 nM) for 2 h. Cells were then fixed and stained with an early endosome marker 1 (EEA1). The number of cells with dispersed endosomes after treatment with PhAP or AP was indistinguishable. The maximum number of cells with dispersed endosomes (67.5±7.0% for PhAP and 64.1±7.6% for non-photocleavable AP), was obtained at dimerizer concentrations greater than 500 nM. The rate of dispersion was also similar using either dimerizing agent, and no changes were observed past 2 hours. The values obtained for both AP and PhAP are also in agreement with our previous studies. See e.g., Varma et al., 2010 (Id.)

Setting [2] is: 500 nM, time 0.167 Hr (10 min.).

Molecules are shown by their SMILES.

Take `CCC(C(=O)N1CCCCC1C(=O)OC(CCc1ccc(OC)c(OC)c1)c1cccc(OCC(=O)NCC(CNC(=O)COc2cccc(C(CCc3ccc(OC)c(OC)c3)OC(=O)C3CCCCN3C(=O)C(CC)c3cc(OC)c(OC)c(OC)c3)c2)CN(C)C)c1)c1cc(OC)c(OC)c(OC)c1` (centres unmarked) [AP, AP20187]: the “band of dimerizer-LC8-LC8TRAP complex after UV exposure” value in the assay on LC8-LC8TRAP complex (30 min exposure) is given as “persisted”. For the same compound, the “complex formation between LC8 and FKBP-LC8TRAP (new band)” value on LC8 and FKBP-LC8TRAP is given as “produces a new band”. The “Percentage of endosomes dispersion” value in assay [1] (10 nM, 2 hr. of treatment) came to 44.4 ± 2.4%; in assay [1] (20 nM, 2 hr. of treatment), 53.0 ± 3.5%; in assay [1] (100 nM, 2 hr. of treatment) it was 56.2 ± 1.6%; in assay [1] (500 nM, 2 hr. of treatment) it was 64.1 ± 7.6%; in assay [1] (500 nM, time 0 Hr), 30.2 ± 2.8%; in assay [1] (setting [2]), 45.0 ± 2.6%. The “Percentage of endosomes dispersion” value in assay [1] (500 nM, time 0.5 Hr) amounted to 53.6 ± 6.5%; in assay [1] (500 nM, time 1 Hr) it was 53.8 ± 2.9%; in assay [1] (500 nM, time 2 Hr), 69.8 ± 4.3%; in assay [1] (500 nM, time 4 Hr), 70.9 ± 2.1%; in assay [1] (1000 nM, 2 hr. of treatment) it was 66.4 ± 2.5%. The “time of drug treatment after which maximum dispersion was reached” value in assay [1] (500 nM) came out at 2 h. Besides, the “maximum number of cells with dispersed endosomes” value in assay [1] was 64.1±7.6%. In addition, the “drug concentration at which maximum dispersion is seen” value in assay [1] was 500 nM.

`CC[C@H](C(=O)N1CCCC[C@H]1C(=O)O[C@H](CCc1ccc(OC)c(OC)c1)c1cccc(OCC(=O)OC(C)c2ccc(C(C)OC(=O)COc3cccc([C@@H](CCc4ccc(OC)c(OC)c4)OC(=O)[C@@H]4CCCCN4C(=O)[C@@H](CC)c4cc(OC)c(OC)c(OC)c4)c3)c([N+](=O)[O-])c2)c1)c1cc(OC)c(OC)c(OC)c1` (some centres unmarked) [PhAP]: the “band of dimerizer-LC8-LC8TRAP complex after UV exposure” value was “undetectable” in the assay with LC8-LC8TRAP complex (10 min exposure) and “less intense” with LC8-LC8TRAP complex (five min exposure). For the same compound, the “concentration required to produce a complex band of the same intensity as the sample treated with AP” value at LC8 and FKBP-LC8TRAP (equimolar mixture of LC8 and LC8TRAP, relative to AP) is recorded as 2 ×. For the same compound, the “complex formation between LC8 and FKBP-LC8TRAP (new band)” value on LC8 and FKBP-LC8TRAP was “can also form complex between LC8 and FKBP-LC8TRAP efficiently”. Besides, the “Percentage of endosomes dispersion” value in assay [1] (10 nM, 2 hr. of treatment) was 47.9 ± 8.1%; in assay [1] (20 nM, 2 hr. of treatment) it was 48.0 ± 5.0%; in assay [1] (50 nM, 2 hr. of treatment), 55.5 ± 1.3%; in assay [1] (100 nM, 2 hr. of treatment), 57.5 ± 2.4%; in assay [1] (500 nM, 2 hr. of treatment), 67.5 ± 7.0%; in assay [1] (500 nM, time 0 Hr), 29.0 ± .8%. For the same compound, the “Percentage of endosomes dispersion” value is listed as 47.2 ± 2.5% in assay [1] (setting [2]); 49.1 ± 3.3% in assay [1] (500 nM, time 0.5 Hr); 57.2 ± 5.2% in assay [1] (500 nM, time 1 Hr); 71.2 ± 2.0% in assay [1] (500 nM, time 2 Hr); 69.0 ± 4.9% in assay [1] (500 nM, time 4 Hr); 67.7 ± 4.9% in assay [1] (1000 nM, 2 hr. of treatment). In addition, in assay [1] (500 nM), the “time of drug treatment after which maximum dispersion was reached” value was found to be 2 h. The “maximum number of cells with dispersed endosomes” value in assay [1] is reported as 67.5±7.0%. In addition, in assay [1], the “drug concentration at which maximum dispersion is seen” value amounted to 500 nM.

For the origin of these results see US9260710B2, “Photocleavable linker” (City of Hope, priority 2012, dated 2016).
